The results in this text go back to PMC7862272, “Discovery of an ene-reductase for initiating flavone and flavonol catabolism in gut bacteria” (Nature Communications, 2021).

For series [1], the target named is T1, FLR (flavone reductase) (Flavonifractor plautii, UniProt A0A096D7X8).
T1 construct: gene HMPREF9460_03474; SeMet-labelled for crystals
Put plainly: X-ray crystal structure, soaked SeMet crystal. Particulars: FMN bound, dimer interface. It is filed as binding.

The target of series [2] is T1, FLR (flavone reductase). Put plainly: X-ray crystal structure (Se-SAD). It is filed as binding. Particulars: co-purified FMN at dimer interface.
Series [3] addresses flavone reductase (FLR) from Flavonifractor plautii ATCC 49531 (Flavonifractor plautii ATCC 49531). Put plainly: SEC-MALS; Superdex-200 10/300; 100 mM NaCl, 20 mM Tris-HCl pH 7.9, 3 mM FMN, 3 mM DTT; 100 uL of FLR at ~5 mg/mL injected; room temperature.
Another series deals with T2, sgrIFR (Streptomyces griseus, UniProt B1W160).
T2 construct: gene SGR_2256; expressed in E. coli BL21 from pET28a, activity of the cell culture
T2 sequence (B1W160 1-332): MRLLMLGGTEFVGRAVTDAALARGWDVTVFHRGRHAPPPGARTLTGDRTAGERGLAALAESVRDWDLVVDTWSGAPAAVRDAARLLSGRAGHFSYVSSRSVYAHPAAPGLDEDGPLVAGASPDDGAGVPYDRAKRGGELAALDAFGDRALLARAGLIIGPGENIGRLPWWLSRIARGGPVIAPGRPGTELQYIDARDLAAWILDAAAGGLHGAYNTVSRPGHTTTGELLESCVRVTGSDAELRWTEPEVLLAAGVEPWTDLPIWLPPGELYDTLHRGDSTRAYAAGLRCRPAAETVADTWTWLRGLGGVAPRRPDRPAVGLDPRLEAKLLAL
Put plainly: conversion by E. coli expressing the enzyme. Format: cell-based. Particulars: product dihydrodaidzein.

Substrate in the series “purified protein”: O=c1cc(-c2ccc(O)cc2)oc2cc(O)cc(O)c12
Put plainly: purified protein. Particulars: pH 7.0, 37 °C, 5 mM NADH, 0.5 mM FMN, 5 μM Fre, 5% DMSO, anaerobic.

Substrate in series [4]: O=C1C[C@@H](c2ccc(O)cc2)Oc2cc(O)cc(O)c21
Put plainly: HPLC, steady-state kinetics, reverse reaction. Particulars: pH 7.0, 37 °C, 0.5 mM FMN, 5% DMSO, reverse reaction (dehydrogenation to apigenin). Format: biochemical, Flavonifractor plautii. The source says:
HPLC, steady-state kinetics, reverse reaction on FLR (flavone reductase) | The determination of the Km and kcat values of FLR for naringenin

As for `O=c1cc(-c2ccc(O)c(O)c2)oc2cc(O)cc(O)c12` [luteolin], on FLR (flavone reductase) [1] (2.25 Å), the “X-ray crystal structure, soaked SeMet crystal” value is “solved the complex structures of FLR with various substrates, including apigenin, chrysin, and luteolin”.
`O=c1cc(-c2ccc(O)cc2)oc2cc(O)cc(O)c12` [apigenin]: the “X-ray crystal structure, soaked SeMet crystal” value at FLR (flavone reductase) [1] (2.55 Å) was “solved the complex structures of FLR with various substrates, including apigenin, chrysin, and luteolin”.
Consider `Cc1cc2nc3c(=O)[nH]c(=O)nc-3n(C[C@H](O)[C@H](O)[C@H](O)COP(=O)(O)O)c2cc1C` [FMN], for which the “X-ray crystal structure (Se-SAD)” value at FLR (flavone reductase) [2] is “The cofactor molecule FMN binds at the dimer interface”.
In turn, “flavone reductase (FLR) from Flavonifractor plautii ATCC 49531 (enzyme)” came in with a stoichiometry N in series [3] of 2.
Turning to `O=c1cc(-c2ccccc2)oc2cc(O)cc(O)c12` [chrysin], on FLR (flavone reductase) [1] (2.65 Å), the “X-ray crystal structure, soaked SeMet crystal” value was “solved the complex structures of FLR with various substrates, including apigenin, chrysin, and luteolin”.
With `O=c1c(-c2ccc(O)cc2)coc2cc(O)ccc12` [daidzein], the “conversion by E. coli expressing the enzyme” value on sgrIFR is given as “they could convert daidzein (a main isoflavone) to dihydrodaidzein”.

B1: FLR (flavone reductase) (Flavonifractor plautii 1_3_50AFAA) (protein)
chain: MKILGISGGMRNGSNDGMCIEALMGAKEMGAEVEFIQLQNLHIEHCTGCTACVQSVLGGRGGKCVLKDDFDWLLDKMLDADGIVFSTPIFEKGATGLFHTITDRFGPRMDRGNNIIGTKIAEETGGTAPDPRILKDKVISFMSVGGSDWVTRTQCDAGMLALTPMWKVIDNEVFPWALSILVEDERVARAHQIGRNIAEAAKNIEHAQYQGDAGVCPHCHSRNFHLQDGKAICCLCGLEGEIHNESGKYSFTFPAEQLEHAHDTLSGKFIHGNDIKENTGKKIANMQTEKYKARQAAYRAFITATVPEKG
notes: SeMet-labelled for crystals
As to B1, in the series “purified protein”, the Km was determined as 8.36 ± 1.34 µM and the kcat worked out at 0.0165 ± 0.0009 s⁻¹. Besides, in series [4], the Km amounted to 12.27 ± 1.46 µM and the kcat turned out to be 0.0577 ± 0.0025 s⁻¹.
